Source: patent US10004701B2, “Methods and compositions for treating infection” (UNIVERSITY OF ROCHESTER, priority 2012, dated 2018)
Structures can show the parent of a compound that is named as a salt. Where two headings read alike, the source gives them in different places.

Assays:
Assay in all cases: AK assay 384-well format, Prestwick library screening
E. faecium = format: cell-based, Enterococcus faecium; details: 50 μM final drug concentration; for fold induction at 50 µM: Enterococcus faecium, 3 h; for AK-based Prestwick Library Screening Results, E. faecium (fold increase in extracellular AK activity): planktonic
[1] = test system: S. aureus strain USA300-0114; format: cell-based, Staphylococcus aureus; details: 50 μM final drug concentration; for fold induction at 50 µM: Staphylococcus aureus, USA300, 3 h; for AK-based Prestwick Library Screening Results, S. aureus (fold increase in extracellular AK activity): planktonic
K. pneumoniae = format: cell-based, Klebsiella pneumoniae; details: 50 μM final drug concentration; for fold induction at 50 µM: Klebsiella pneumoniae, 3 h; for AK-based Prestwick Library Screening Results, K. pneumoniae (fold increase in extracellular AK activity): planktonic
[2] = test system: A. baumannii strain 98-37-09; format: cell-based, Acinetobacter baumannii; details: 50 μM final drug concentration; for fold induction at 50 µM: Acinetobacter baumannii, 983709, 3 h; for AK-based Prestwick Library Screening Results, A. baumannii (fold increase in extracellular AK activity): planktonic
P. aeruginosa = format: cell-based, Pseudomonas aeruginosa; details: 50 μM final drug concentration; for fold induction at 50 µM: Pseudomonas aeruginosa, 3 h; for AK-based Prestwick Library Screening Results, P. aeruginosa (fold increase in extracellular AK activity): planktonic
E. cloacae = format: cell-based, Enterobacter cloacae; details: 50 μM final drug concentration; for fold induction at 50 µM: Enterobacter cloacae, 3 h; for AK-based Prestwick Library Screening Results, E. cloacae (fold increase in extracellular AK activity): planktonic
E. coli = format: cell-based, Escherichia coli; details: 50 μM final drug concentration; for fold induction at 50 µM: Escherichia coli, 3 h; for AK-based Prestwick Library Screening Results, E. coli (fold increase in extracellular AK activity): planktonic
[3] = planktonic E. faecium, positive cutoff 3-fold increase, read-out: AK-based Prestwick library screening result, E. faecium (fold increase in extracellular AK activity)
[4] = planktonic S. aureus, positive cutoff 3-fold increase, read-out: AK-based Prestwick library screening result, S. aureus (fold increase in extracellular AK activity)
[5] = planktonic K. pneumoniae, positive cutoff 3-fold increase, read-out: AK-based Prestwick library screening result, K. pneumoniae (fold increase in extracellular AK activity)
[6] = planktonic A. baumannii, positive cutoff 3-fold increase, read-out: AK-based Prestwick library screening result, A. baumannii (fold increase in extracellular AK activity)
[7] = planktonic P. aeruginosa, positive cutoff 3-fold increase, read-out: AK-based Prestwick library screening result, P. aeruginosa (fold increase in extracellular AK activity)
[8] = planktonic E. cloacae, positive cutoff 3-fold increase, read-out: AK-based Prestwick library screening result, E. cloacae (fold increase in extracellular AK activity)
[9] = planktonic E. coli, positive cutoff 3-fold increase, read-out: AK-based Prestwick library screening result, E. coli (fold increase in extracellular AK activity)
[10] = planktonic E. faecium, 384-well, cutoff for positive-scoring molecules 3-fold increase, read-out: AK-based Prestwick Library Screening Results: E. faecium (increase in extracellular AK activity)
[11] = planktonic S. aureus, 384-well, cutoff for positive-scoring molecules 3-fold increase, read-out: AK-based Prestwick Library Screening Results: S. aureus (increase in extracellular AK activity)
[12] = planktonic K. pneumoniae, 384-well, cutoff for positive-scoring molecules 3-fold increase, read-out: AK-based Prestwick Library Screening Results: K. pneumoniae (increase in extracellular AK activity)
[13] = planktonic A. baumannii, 384-well, cutoff for positive-scoring molecules 3-fold increase, read-out: AK-based Prestwick Library Screening Results: A. baumannii (increase in extracellular AK activity)
[14] = planktonic P. aeruginosa, 384-well, cutoff for positive-scoring molecules 3-fold increase, read-out: AK-based Prestwick Library Screening Results: P. aeruginosa (increase in extracellular AK activity)
[15] = planktonic E. cloacae, 384-well, cutoff for positive-scoring molecules 3-fold increase, read-out: AK-based Prestwick Library Screening Results: E. cloacae (increase in extracellular AK activity)
[16] = planktonic E. coli, 384-well, cutoff for positive-scoring molecules 3-fold increase, read-out: AK-based Prestwick Library Screening Results: E. coli (increase in extracellular AK activity)
[17] = 384-well format, cutoff for positive-scoring molecules 3-fold increase, read-out: AK-based Prestwick Library Screening Results, E. faecium (increase in extracellular AK activity)
[18] = 384-well format, cutoff for positive-scoring molecules 3-fold increase, read-out: AK-based Prestwick Library Screening Results, S. aureus (increase in extracellular AK activity)
[19] = 384-well format, cutoff for positive-scoring molecules 3-fold increase, read-out: AK-based Prestwick Library Screening Results, K. pneumoniae (increase in extracellular AK activity)
[20] = 384-well format, cutoff for positive-scoring molecules 3-fold increase, read-out: AK-based Prestwick Library Screening Results, A. baumannii (increase in extracellular AK activity)
[21] = 384-well format, cutoff for positive-scoring molecules 3-fold increase, read-out: AK-based Prestwick Library Screening Results, P. aeruginosa (increase in extracellular AK activity)
[22] = 384-well format, cutoff for positive-scoring molecules 3-fold increase, read-out: AK-based Prestwick Library Screening Results, E. cloacae (increase in extracellular AK activity)
[23] = 384-well format, cutoff for positive-scoring molecules 3-fold increase, read-out: AK-based Prestwick Library Screening Results, E. coli (increase in extracellular AK activity)
[24] = cutoff for positive 3-fold increase
[25] = cutoff for positive-scoring molecules 3-fold increase

## CC1(C)S[C@@H]2[C@H](NC(=O)[C@H](C(=O)O)c3ccsc3)C(=O)N2[C@H]1C(=O)O [Ticarcillin sodium]
E. faecium; [3]
  fold induction at 50 µM: 1.2
[1]; [4]
  fold induction at 50 µM: 0.7
K. pneumoniae; [5]
  fold induction at 50 µM: 0.7
[2]; [6]
  fold induction at 50 µM: 2.6
P. aeruginosa; [7]
  fold induction at 50 µM: 0.8
E. cloacae; [8]
  fold induction at 50 µM: 1.4
E. coli; [9]
  fold induction at 50 µM: 12.8

## CN(C)CCOC(c1ccccc1)c1ccccc1 [Diphenhydramine hydrochloride]
E. faecium; [10]
  fold induction at 50 µM: 0.9
[1]; [11]
  fold induction at 50 µM: 1.1
K. pneumoniae; [12]
  fold induction at 50 µM: 1
[2]; [13]
  fold induction at 50 µM: 1.3
P. aeruginosa; [14]
  fold induction at 50 µM: 1
E. cloacae; [15]
  fold induction at 50 µM: 1.4
E. coli; [16]
  fold induction at 50 µM: 1.3

## CC1=C(/C=C/C(C)=C/C=C/C(C)=C/C(=O)O)C(C)(C)CCC1 [Retinoic acid]
E. faecium; [17]
  fold induction at 50 µM: 1
[1]; [18]
  fold induction at 50 µM: 0.8
K. pneumoniae; [19]
  fold induction at 50 µM: 0.6
[2]; [20]
  fold induction at 50 µM: 0.8
P. aeruginosa; [21]
  fold induction at 50 µM: 0.7
E. cloacae; [22]
  fold induction at 50 µM: 0.9
E. coli; [23]
  fold induction at 50 µM: 0.7

## NCCCC[C@H](N[C@@H](CCc1ccccc1)C(=O)O)C(=O)N1CCC[C@H]1C(=O)O [Lisinopril]
E. faecium; [10]
  fold induction at 50 µM: 1
[1]; [11]
  fold induction at 50 µM: 4.3
K. pneumoniae; [12]
  fold induction at 50 µM: 1
[2]; [13]
  fold induction at 50 µM: 1.3
P. aeruginosa; [14]
  fold induction at 50 µM: 1.2
E. cloacae; [15]
  fold induction at 50 µM: 1.5
E. coli; [16]
  fold induction at 50 µM: 1.2

## NC(=O)c1cc[n+](CC2=C(C(=O)[O-])N3C(=O)[C@@H](NC(=O)Cc4cccs4)[C@H]3SC2)cc1 [Cefalonium]
E. faecium; [3]
  fold induction at 50 µM: 0.9
[1]; [4]
  fold induction at 50 µM: 1.6
K. pneumoniae; [5]
  fold induction at 50 µM: 3.8
[2]; [6]
  fold induction at 50 µM: 1.5
P. aeruginosa; [7]
  fold induction at 50 µM: 0.8
E. cloacae; [8]
  fold induction at 50 µM: 1.4
E. coli; [9]
  fold induction at 50 µM: 16.6

## CCCNCC(O)COc1ccccc1C(=O)CCc1ccccc1 (centres unmarked) [Propafenone hydrochloride]
E. faecium; planktonic E. faecium, cutoff for positive-scoring molecules 3-fold increase, read-out: AK-based Prestwick Library Screening Results, E. faecium (increase in extracellular AK activity)
  fold induction at 50 µM: 1
[1]; planktonic S. aureus, cutoff for positive-scoring molecules 3-fold increase, read-out: AK-based Prestwick Library Screening Results, S. aureus (increase in extracellular AK activity)
  fold induction at 50 µM: 0.7
K. pneumoniae; planktonic K. pneumoniae, cutoff for positive-scoring molecules 3-fold increase, read-out: AK-based Prestwick Library Screening Results, K. pneumoniae (increase in extracellular AK activity)
  fold induction at 50 µM: 0.6
[2]; planktonic A. baumannii, cutoff for positive-scoring molecules 3-fold increase, read-out: AK-based Prestwick Library Screening Results, A. baumannii (increase in extracellular AK activity)
  fold induction at 50 µM: 0.7
P. aeruginosa; planktonic P. aeruginosa, cutoff for positive-scoring molecules 3-fold increase, read-out: AK-based Prestwick Library Screening Results, P. aeruginosa (increase in extracellular AK activity)
  fold induction at 50 µM: 0.7
E. cloacae; planktonic E. cloacae, cutoff for positive-scoring molecules 3-fold increase, read-out: AK-based Prestwick Library Screening Results, E. cloacae (increase in extracellular AK activity)
  fold induction at 50 µM: 0.8
E. coli; planktonic E. coli, cutoff for positive-scoring molecules 3-fold increase, read-out: AK-based Prestwick Library Screening Results, E. coli (increase in extracellular AK activity)
  fold induction at 50 µM: 1

## CCC(=O)O[C@@](Cc1ccccc1)(c1ccccc1)[C@@H](C)CN(C)C [Levopropoxyphene napsylate]
E. faecium; […], read-out: AK-based Prestwick Library Screening Results, E. faecium (fold increase in extracellular AK activity)
  fold induction at 50 µM: 1
[1]; […], read-out: AK-based Prestwick Library Screening Results, S. aureus (fold increase in extracellular AK activity)
  fold induction at 50 µM: 0.6
K. pneumoniae; […], read-out: AK-based Prestwick Library Screening Results, K. pneumoniae (fold increase in extracellular AK activity)
  fold induction at 50 µM: 0.6
[2]; […], read-out: AK-based Prestwick Library Screening Results, A. baumannii (fold increase in extracellular AK activity)
  fold induction at 50 µM: 0.7
P. aeruginosa; […], read-out: AK-based Prestwick Library Screening Results, P. aeruginosa (fold increase in extracellular AK activity)
  fold induction at 50 µM: 0.7
E. cloacae; […], read-out: AK-based Prestwick Library Screening Results, E. cloacae (fold increase in extracellular AK activity)
  fold induction at 50 µM: 0.7
E. coli; […], read-out: AK-based Prestwick Library Screening Results, E. coli (fold increase in extracellular AK activity)
  fold induction at 50 µM: 0.6

## CCN(CC)CCOc1ccc(C(=C(Cl)c2ccccc2)c2ccccc2)cc1.O=C(O)CC(O)(CC(=O)O)C(=O)O [Clomiphene citrate (Z,E)]
E. faecium; [24]
  AK-based Prestwick Library Screening Results, E. faecium (fold increase in extracellular AK activity): 4.4
[1]; [24]
  AK-based Prestwick Library Screening Results, S. aureus (fold increase in extracellular AK activity): 2.0
K. pneumoniae; [24]
  AK-based Prestwick Library Screening Results, K. pneumoniae (fold increase in extracellular AK activity): 1.6
[2]; [24]
  AK-based Prestwick Library Screening Results, A. baumannii (fold increase in extracellular AK activity): 5.4
P. aeruginosa; [24]
  AK-based Prestwick Library Screening Results, P. aeruginosa (fold increase in extracellular AK activity): 1.4
E. cloacae; [24]
  AK-based Prestwick Library Screening Results, E. cloacae (fold increase in extracellular AK activity): 1.9
E. coli; [24]
  AK-based Prestwick Library Screening Results, E. coli (fold increase in extracellular AK activity): 1.8

## CCc1nc(N)nc(N)c1-c1ccc(Cl)cc1 [Pyrimethamine]
E. faecium; [17]
  fold induction at 50 µM: 1
[1]; [18]
  fold induction at 50 µM: 0.7
K. pneumoniae; [19]
  fold induction at 50 µM: 0.7
[2]; [20]
  fold induction at 50 µM: 2.5
P. aeruginosa; [21]
  fold induction at 50 µM: 0.9
E. cloacae; [22]
  fold induction at 50 µM: 1.3
E. coli; [23]
  fold induction at 50 µM: 1.4

## CC(C)NC[C@@H](O)c1ccc(O)c(O)c1.O=C(O)C(O)C(O)C(=O)O [(+)-Isoproterenol (+)-bitartrate salt]
E. faecium; [25]
  AK-based Prestwick Library Screening Results, E. faecium (fold increase in extracellular AK activity): 0.9
[1]; [25]
  AK-based Prestwick Library Screening Results, S. aureus (fold increase in extracellular AK activity): 0.8
K. pneumoniae; [25]
  AK-based Prestwick Library Screening Results, K. pneumoniae (fold increase in extracellular AK activity): 1.0
[2]; [25]
  AK-based Prestwick Library Screening Results, A. baumannii (fold increase in extracellular AK activity): 0.8
P. aeruginosa; [25]
  AK-based Prestwick Library Screening Results, P. aeruginosa (fold increase in extracellular AK activity): 0.8
E. cloacae; [25]
  AK-based Prestwick Library Screening Results, E. cloacae (fold increase in extracellular AK activity): 1.4
E. coli; [25]
  AK-based Prestwick Library Screening Results, E. coli (fold increase in extracellular AK activity): 0.9

## C[C@H]1[C@H](NC(=O)/C(=N\OC(C)(C)C(=O)O)c2csc(N)n2)C(=O)N1S(=O)(=O)O [Aztreonam]
E. faecium; [17]
  fold induction at 50 µM: 1
[1]; [18]
  fold induction at 50 µM: 0.6
K. pneumoniae; [19]
  fold induction at 50 µM: 2.6
[2]; [20]
  fold induction at 50 µM: 5.4
P. aeruginosa; [21]
  fold induction at 50 µM: 9.1
E. cloacae; [22]
  fold induction at 50 µM: 18.4
E. coli; [23]
  fold induction at 50 µM: 15.9
